In general, IC50 refers to the concentration that gives 50% inhibition. High values mean a need for much substance, low ones inhibition by little substance.

The assay can be described thus: Inhibition of angiotensin II (unknown origin).

Compound `CCCCc1nc2ccc(C3CC(c4ccc(C)cc4)=NO3)cc2c(=O)n1Cc1ccc(-c2ccccc2-c2nnnn2C(c2ccccc2)(c2ccccc2)c2ccccc2)cc1` (configuration not stated) returned an IC50 of 22 nM.
Regarding `CCCCc1nc2ccc(C3CC(C(=O)OCC)=NO3)cc2c(=O)n1Cc1ccc(-c2ccccc2-c2nnnn2C(c2ccccc2)(c2ccccc2)c2ccccc2)cc1` (configuration not stated), the IC50 is 22 nM.

For the origin of these results see BindingDB's records for PubMed 29656203 (n/a, 2018).
